Data reported in patent publication US9624214B2, “Amino-substituted imidazo[1,2-a]pyridinecarboxamides and their use” (BAYER PHARMA AKTIENGESELLSCHAFT, priority 2012, dated 2017).

molecular target: T1, recombinant guanylate cyclase reporter cell line (Rattus norvegicus, UniProt P19686+P20595); experiment: B-2. Action on recombinant guanylate cyclase reporter cell line; type: cell-based; details: MEC = minimal effective concentration; in some cases mean values from individual determinations
T1 construct: expressed in transfected cells
T1 sequence (P20595 1-619): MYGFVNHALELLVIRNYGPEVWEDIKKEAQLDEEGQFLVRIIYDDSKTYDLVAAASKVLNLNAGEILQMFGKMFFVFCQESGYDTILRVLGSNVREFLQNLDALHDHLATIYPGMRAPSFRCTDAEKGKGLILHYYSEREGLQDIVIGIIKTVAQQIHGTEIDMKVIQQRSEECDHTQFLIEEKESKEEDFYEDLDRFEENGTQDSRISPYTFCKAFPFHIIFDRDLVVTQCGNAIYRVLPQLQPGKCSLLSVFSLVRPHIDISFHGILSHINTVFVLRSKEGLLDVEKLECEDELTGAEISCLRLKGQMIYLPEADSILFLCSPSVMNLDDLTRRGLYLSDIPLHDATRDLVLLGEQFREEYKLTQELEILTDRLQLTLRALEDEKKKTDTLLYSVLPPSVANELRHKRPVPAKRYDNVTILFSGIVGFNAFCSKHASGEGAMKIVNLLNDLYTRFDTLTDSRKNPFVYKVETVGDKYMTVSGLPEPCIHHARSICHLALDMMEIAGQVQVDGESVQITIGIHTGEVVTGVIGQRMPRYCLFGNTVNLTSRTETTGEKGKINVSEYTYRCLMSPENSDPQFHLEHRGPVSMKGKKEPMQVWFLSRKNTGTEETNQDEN
T1 sequence (P19686 1-690): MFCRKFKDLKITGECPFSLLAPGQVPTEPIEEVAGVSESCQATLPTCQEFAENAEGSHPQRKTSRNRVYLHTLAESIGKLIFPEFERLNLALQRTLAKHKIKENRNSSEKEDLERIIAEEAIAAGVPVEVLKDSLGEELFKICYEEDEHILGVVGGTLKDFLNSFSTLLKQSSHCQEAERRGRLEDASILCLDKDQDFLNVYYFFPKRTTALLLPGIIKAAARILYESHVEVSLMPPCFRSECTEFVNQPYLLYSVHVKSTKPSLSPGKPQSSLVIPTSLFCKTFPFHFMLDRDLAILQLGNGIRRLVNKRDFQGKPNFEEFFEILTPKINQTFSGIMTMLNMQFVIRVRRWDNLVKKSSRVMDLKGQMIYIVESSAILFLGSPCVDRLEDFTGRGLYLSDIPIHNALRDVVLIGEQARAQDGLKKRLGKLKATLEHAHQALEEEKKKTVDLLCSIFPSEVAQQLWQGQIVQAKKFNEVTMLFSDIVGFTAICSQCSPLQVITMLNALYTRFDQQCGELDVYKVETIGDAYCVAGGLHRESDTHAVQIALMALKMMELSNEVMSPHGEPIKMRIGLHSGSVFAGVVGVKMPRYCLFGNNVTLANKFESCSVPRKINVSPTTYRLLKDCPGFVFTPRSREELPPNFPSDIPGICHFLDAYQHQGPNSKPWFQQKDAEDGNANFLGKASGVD
In short: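 Compounds are tested on whole cells carrying a guanylate cyclase reporter construct. The lowest concentration giving an effect is recorded as the MEC.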

SMILES | MEC [µM]
Cc1nc2c(OCc3c(F)cccc3F)cccn2c1C(=O)NC1CCNc2ccc(C(F)(F)F)cc21 (single isomer, unassigned; ent-8) [Example 111, ent-8-[(2,6-difluorobenzyl)oxy]-2-methyl-N-[6-(trifluoromethyl)-1,2,3,4-tetrahydroquinolin-4-yl]imidazo[1,2-a]pyridine-3-carboxamide] | 1.00
Cc1nc2c(OCc3c(F)cccc3F)cccn2c1C(=O)NC(CN1CCOCC1)c1ccccc1 (single isomer, unassigned; ent-8) [Example 183, ent-8-[(2,6-Difluorobenzyl)oxy]-2-methyl-N-[2-(morpholin-4-yl)-1-phenylethyl]imidazo[1,2-a]-pyridine-3-carboxamide] | 1.00
Cc1nc2c(OCc3c(F)cccc3F)cccn2c1C(=O)NC(CN)COC(C)C (racemic) [Example 63, rac-N-(1-Amino-3-isopropoxypropan-2-yl)-8-[(2,6-difluorobenzyl)oxy]-2-methylimidazo[1,2-a]-pyridine-3-carboxamide] | 0.30
Cc1nc2c(OCc3c(F)cccc3F)cccn2c1C(=O)NC(C)CN (single isomer, unassigned; enantiomer b) [Example 20, ent-N-(1-Aminopropan-2-yl)-8-[(2,6-difluorobenzyl)oxy]-2-methylimidazo[1,2-a]pyridine-3-carboxamide (Enantiomer B)] | 1.00
Cc1cc(OCc2c(F)cccc2F)c2nc(C)c(C(=O)NCCN3CCN(C(C)C)CC3)n2c1 [Example 139, 8-[(2,6-difIuorobenzyl)oxy]-N-[2-(4-isopropylpiperazin-1-yl)ethyl]-2,6-dimethylimidazo[1,2-a]pyridine-3-carboxamide] | 1.00
Cc1nc2c(OCc3c(F)cccc3F)cc(Cl)cn2c1C(=O)NCCN1CC(N2CCCC2)C1 [Example 156, 6-chloro-8-[(2,6-difluorobenzyl)oxy]-2-methyl-N-{2-[3-(pyrrolidin-1-yl)azetidin-1-yl]ethyl}-imidazo[1,2-a]pyridine-3-carboxamide] | 3.00
Cc1nc2c(OCC3CCCCC3)cccn2c1C(=O)NC(CN)c1ccc(Cl)cc1 (racemic) [Example 43, rac-N-[2-Amino-1-(4-chlorophenyl)ethyl]-8-(cyclohexylmethoxy)-2-methylimidazo[1,2-a]-pyridine-3-carboxamide] | 1.00
Cc1cc(OCc2c(F)cccc2F)c2nc(C)c(C(=O)NC[C@@H]3CCCCN3)n2c1 [Example 172, 8-[(2,6-Difluorobenzyl)oxy]-2,6-dimethyl-N-[(2S)-piperidin-2-ylmethyl]imidazo[1,2-a]pyridine-3-carboxamide] | 0.30
Cc1nc2c(OCc3c(F)cccc3F)cccn2c1C(=O)NCC(C)(C)N(C)C [Example 145, 8-[(2,6-difluorobenzyl)oxy]-N-[2-(dimethylamino)-2-methylpropyl]-2-methylimidazo[1,2-a]pyridine-3-carboxamide] | 3.00
Cc1nc2c(OCc3c(F)cccc3F)cc(F)cn2c1C(=O)NC(CN)c1ccc(F)c(F)c1 (stereo not drawn) [Example 53, ent-N-[2-Amino-(3,4-difluorophenyl)ethyl]-8-[(2,6-difluorobenzyl)oxy]-6-fluoro-2-methylimidazo[1,2-a]pyridine-3-carboxamide] | 0.30
Cc1nc2c(OCc3c(F)cccc3F)cccn2c1C(=O)NC12CNCCC1C2 (single isomer, unassigned) [Example 185, ent-N-(3-Azabicyclo[4.1.0]hept-1-yl)-8-[(2,6-difluorobenzyl)oxy]-2-methylimidazo[1,2-a]pyridine-3-carboxamide] | 1.00
Cc1cc(OCc2c(F)cccc2F)c2nc(C)c(C(=O)NC3CNc4ccccc4C3)n2c1 (racemic) [Example 76, rac-8-[(2,6-difluorobenzyl)oxy]-2,6-dimethyl-N-(1,2,3,4-tetrahydroquinolin-3-yl)imidazo[1,2-a]-pyridine-3-carboxamide] | 0.30
Cc1nc2c(OCc3c(F)cccc3F)cc(Cl)cn2c1C(=O)NCC(C)N (single isomer, unassigned; enantiomer b) [Example 30, ent-N-(2-Aminopropyl)-6-chloro-8-[(2,6-difluorobenzyl)oxy]-2-methylimidazo[1,2-a]pyridine-3-carboxamide (Enantiomer B)] | 0.30

More lines, now with the values ahead:

MEC [µM] | SMILES
3.00 | CC(=O)Nc1cccc(C(CN)NC(=O)c2c(C)nc3c(OCc4c(F)cccc4F)cc(C)cn23)c1 (racemic) [Example 396, rac-N-[1-(3-acetamidophenyl)-2-aminoethyl]-8-[(2,6-difluorobenzyl)oxy]-2,6-dimethylimidazo[1,2-a]pyridine-3-carboxamide]
0.10 | CCCC(C)(N)CNC(=O)c1c(C(F)(F)F)nc2c(OCc3c(F)cccc3F)cc(C)cn12 (stereo not drawn) [Example 305, ent-N-(2-amino-2-methylpentyl)-8-[(2,6-difluorobenzyl)oxy]-6-methyl-2-(trifluoromethyl)imidazo[1,2-a]pyridine-3-carboxamide]
0.55 | Cc1cc(OCc2c(F)cccc2F)c2nc(C)c(C(=O)NC3(C)CCC3(C)N)n2c1 (single isomer, unassigned; enantiomer b) [Example 337, ent-N-[(2-amino-1,2-dimethylcyclobutyl]-8-[(2,6-difluorobenzyl)oxy]-2,6-dimethylimidazo[1,2-a]pyridine-3-carboxamide (Enantiomer B)]
3.00 | Cc1cc(OCc2c(F)cccc2F)c2nc(C)c(C(=O)N[C@@H]3CCCC[C@H]3N)n2c1 [Example 251, ent-N-[(1R,2R)-2-Aminocyclohexyl]-8-[(2,6-difluorobenzyl)oxy]-2,6-dimethylimidazo[1,2-a]-pyridine-3-carboxamide]
1.00 | Cc1cc(OCc2c(F)cccc2F)c2nc(C)c(C(=O)NCC(C)(N)COc3ccc(F)c(F)c3)n2c1 (racemic) [Example 350, rac-N-[2-amino-3-(3,4-difluorophenoxy)-2-methylpropyl]-8-[(2,6-difluorobenzyl)oxy]-2,6-dimethylimidazo[1,2-a]pyridine-3-carboxamide]
1.00 | Cc1nc2c(OCc3c(F)cccc3F)cc(Cl)cn2c1C(=O)NCC(N)CC(F)(F)F (single isomer, unassigned) [Example 193, ent-N-(2-Amino-4,4,4-trifluorobutyl)-6-chloro-8-[(2,6-difluorobenzyl)oxy]-2-methylimidazo[1,2-a]pyridine-3-carboxamide]
0.30 | Cc1nc2c(OCc3c(F)cccc3F)cc(CF)cn2c1C(=O)NCC(C)(N)CF (stereo not drawn) [Example 405, ent-N-(2-amino-3-fluoro-2-methylpropyl)-8-[(2,6-difluorobenzyl)oxy]-6-(fluoromethyl)-2-methylimidazo[1,2-a]pyridine-3-carboxamide]
5.5 | Cc1cc(OCc2c(F)cccc2F)c2nc(C)c(C(=O)NCC(N)CCS(C)(=O)=O)n2c1 (racemic) [Example 413, rac-N-[2-amino-4-(methylsulfonyl)butyl]-8-[(2,6-difluorobenzyl)oxy]-2,6-dimethylimidazo[1,2-a]pyridine-3-carboxamide]
0.10 | Cc1nc2c(OCc3c(F)cccc3F)cccn2c1C(=O)NCC(C)(N)CC(C)C (racemic) [Example 202, rac-N-(2-Amino-2,4-dimethylpentyl)-8-[(2,6-difluorobenzyl)oxy]-2-methylimidazo[1,2-a]pyridine-3-carboxamide]
